From publication PMC12704249, “New Mannich-type arylidenerhodanines as potent inhibitors of AChE and BChE: synthesis, biological evaluation, cytotoxicity and molecular modeling” (RSC Advances, 2025)
Where two headings read alike, the source gives them in different places.

What was measured:
[1] = molecular target: T1, AChE derived from Electrophorus electricus (Electrophorus electricus, UniProt O42275); assay: AChE inhibition assay (modified Ellman's colorimetric method, Lineweaver–Burk Ki); type: biochemical, Electrophorus electricus (electric eel); details: for Ki: 0.1 M Tris–HCl pH 8.0, substrate acetylthiocholine chloride; for Selectivity (BChE/AChE): ratio of BChE Ki to AChE Ki
T1 construct: purchased Sigma-Aldrich (St. Louis, MO, USA)
Description: Enzyme kinetic parameters were derived by measuring initial velocities at varying substrate concentrations both in the presence and absence of inhibitors. The Ki values were obtained through Lineweaver–Burk double-reciprocal plots, where 1/V was plotted against 1/[S], allowing for graphical estimation based on the shift in intercepts.[47,48]

[2] = molecular target: T2, BChE isolated from equine serum (Equus caballus, UniProt P81908); assay: BChE inhibition assay (modified Ellman's colorimetric method, Lineweaver–Burk Ki); type: biochemical; details: for Ki: 0.1 M Tris–HCl pH 8.0, substrate butyrylthiocholine iodide; for BChE Ki, fold more inhibitory than donepezil: relative to donepezil Ki; for BChE Ki, fold more inhibitory than tacrine: relative to tacrine Ki
T2 construct: BChE isolated from equine serum (≥10 U per mg protein); purchased Sigma-Aldrich (St. Louis, MO, USA); host or cells: equine serum
Procedure: AChE derived from Electrophorus electricus (electric eel; specific activity: 200–1000 U per mg protein) and BChE isolated from equine serum (≥10 U per mg protein) were obtained from Sigma-Aldrich (St. Louis, MO, USA). Acetylthiocholine chloride (ATChCl) and butyrylthiocholine iodide (BTChI) were utilized as the respective substrates for AChE and BChE assays. All reagent solutions were freshly prepared in 0.1 M Tris–HCl buffer at pH 8.0. The enzymatic activities were assessed spectrophotometrically following a modified protocol based on Ellman's colorimetric method.[46] […] To determine the inhibition constant (Ki), a range of inhibitor concentrations was tested under steady-state conditions. Enzyme kinetic parameters were derived by measuring initial velocities at varying substrate concentrations both in the presence and absence of inhibitors. The Ki values were obtained through Lineweaver–Burk double-reciprocal plots, where 1/V was plotted against 1/[S], allowing for graphical estimation based on the shift in intercepts.[47,48]

HUVEC cell line = assay: MTT cell viability assay on HUVEC; type: cell-based, human
Procedure: The cell line was cultured in DMEM-F12 medium (Gibco, MD, USA) supplemented with 10% fetal bovine serum (FBS) (Gibco, MD, USA) and 1% penicillin/streptomycin (Gibco, MD, USA) under a 5% CO2 humidified atmosphere at 37 °C.
The MTT proliferation test was conducted to determine the impact of the compounds on cell viability in the HUVEC cell line. The cells were seeded in 96-well plates (1 × 10^4 cells per well) and subsequently allowed to grow for 24 hours. […] Following the treatment duration, MTT solution was added at a final concentration of 0.1 mg mL^−1, and the cells were incubated for 4 hours at 37 °C. Then, the supernatant was discarded, DMSO was added to allow the formazan crystals to dissolve, and the plates were incubated in the dark at room temperature for 30 minutes. The absorbance at 570 nm was determined using a microplate reader (BioTek Instruments, Inc., USA). All cytotoxicity assays were done in three times (three independent experiments). IC50 values are given as mean ± standard deviation (SD). […] The error bars in all the figures show the experimental SD.

AChE = details: in Fig. 1, cited from earlier work
BChE = details: in Fig. 1, cited from earlier work
[3] = Homo sapiens, HUVEC, 24 h, MTT, 24 hours treatment, mean ± SD, n = 3, read-out: HUVEC IC50

T2 sequence (P81908 whole entry): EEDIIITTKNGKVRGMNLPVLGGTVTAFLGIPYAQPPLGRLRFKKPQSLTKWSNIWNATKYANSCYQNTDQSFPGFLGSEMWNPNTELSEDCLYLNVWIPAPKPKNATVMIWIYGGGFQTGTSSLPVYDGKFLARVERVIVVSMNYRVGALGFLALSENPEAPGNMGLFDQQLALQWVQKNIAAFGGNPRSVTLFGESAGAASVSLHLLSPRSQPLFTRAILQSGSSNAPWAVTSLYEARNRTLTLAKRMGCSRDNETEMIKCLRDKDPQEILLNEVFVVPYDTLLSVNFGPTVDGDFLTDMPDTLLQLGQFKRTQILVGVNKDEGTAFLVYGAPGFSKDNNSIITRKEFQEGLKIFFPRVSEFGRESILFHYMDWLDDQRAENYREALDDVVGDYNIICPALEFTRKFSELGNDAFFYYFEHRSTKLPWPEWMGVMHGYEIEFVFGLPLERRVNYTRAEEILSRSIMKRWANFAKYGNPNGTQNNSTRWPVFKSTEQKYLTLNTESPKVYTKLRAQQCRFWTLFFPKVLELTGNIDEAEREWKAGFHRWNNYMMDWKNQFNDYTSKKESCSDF
T1 sequence (O42275 24-633): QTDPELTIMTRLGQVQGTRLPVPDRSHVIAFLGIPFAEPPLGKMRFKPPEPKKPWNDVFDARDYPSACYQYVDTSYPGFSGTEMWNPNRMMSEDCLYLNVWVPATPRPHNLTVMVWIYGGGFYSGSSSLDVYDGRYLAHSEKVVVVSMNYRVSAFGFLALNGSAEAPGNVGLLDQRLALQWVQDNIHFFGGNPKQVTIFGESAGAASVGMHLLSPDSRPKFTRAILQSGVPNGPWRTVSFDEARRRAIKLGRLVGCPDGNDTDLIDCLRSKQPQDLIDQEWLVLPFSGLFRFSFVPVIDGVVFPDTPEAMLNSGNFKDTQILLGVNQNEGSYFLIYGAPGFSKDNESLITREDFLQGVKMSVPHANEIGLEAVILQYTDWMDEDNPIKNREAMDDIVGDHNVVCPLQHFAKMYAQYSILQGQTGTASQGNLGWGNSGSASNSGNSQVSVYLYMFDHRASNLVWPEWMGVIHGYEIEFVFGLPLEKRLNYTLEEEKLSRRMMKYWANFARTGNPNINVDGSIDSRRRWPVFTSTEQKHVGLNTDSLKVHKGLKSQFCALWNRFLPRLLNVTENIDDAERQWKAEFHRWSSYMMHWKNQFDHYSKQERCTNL

| SMILES | Ki ([1]; Lineweaver–Burk plots) | Selectivity (BChE/AChE) [1] | Ki ([2]; Lineweaver–Burk plots) | other results |
| --- | --- | --- | --- | --- |
| C=CCN1C(=O)/C(=C/c2cc(CN3CCCC(C)C3)c(O)c(OC)c2)SC1=S (stereo not shown) [Compound 5, (Z)-3-Allyl-5-{4-hydroxy-3-methoxy-5-[(3-methylpiperidin-1-yl)methyl]benzylidene}-2-thioxothiazolidin-4-one] | 95.3 ± 11.2 nM | 0.93 | 88.7 ± 15.5 nM |  |
| C=CCN1C(=O)/C(=C/c2cc(CN3CCN(C)CC3)c(O)c(OC)c2)SC1=S [Compound 2, (Z)-3-Allyl-5-{4-hydroxy-3-methoxy-5-[(4-methylpiperazin-1-yl)methyl]benzylidene}-2-thioxothiazolidin-4-one] | 46 ± 5.21 nM | 1.11 | 50.9 ± 10.4 nM |  |
| C=CCN1C(=O)/C(=C/c2cc(CN3CCc4ccccc4C3)c(O)c(OCC)c2)SC1=S [Compound 11, (Z)-3-Allyl-5-{3-[(3,4-dihydroisoquinolin-2(1H)-yl)methyl]-4-hydroxy-5-ethoxybenzylidene}-2-thioxothiazolidin-4-one] | 12.7 ± 1.96 nM |  | 25.1 ± 6.41 nM | form of inhibition of AChE ([1]; Lineweaver–Burk plots): competitive; IC50 (HUVEC cell line; [3]): 69140 ± 590 nM; BChE Ki, fold more inhibitory than donepezil [2]: > 2.49 fold; BChE Ki, fold more inhibitory than tacrine [2]: over 6.75 fold |
| O=C(O)c1ccc(/C=N/n2c(CN3CCN(c4ncccn4)CC3)nc3ccccc3c2=O)c(C(=O)O)c1 [IV] |  |  |  | IC50 (AChE): 9990 nM; IC50 (BChE): 8650 nM |
| C=CCN1C(=O)/C(=C/c2cc(CN3CCc4ccccc4C3)c(O)c(OC)c2)SC1=S [Compound 6, (Z)-3-Allyl-5-{3-[(3,4-dihydroisoquinolin-2(1H)-yl)methyl]-4-hydroxy-5-methoxybenzylidene}-2-thioxothiazolidin-4-one] | 13.6 ± 1.43 nM | 0.77 | 10.4 ± 1.33 nM | IC50 (HUVEC cell line; Homo sapiens, HUVEC, 24 h, read-out: HUVEC IC50, MTT, 24 hours treatment, mean ± SD, n = 3): 79100 nM; IC50 (HUVEC cell line; MTT, 24 hours treatment, mean ± SD, n = 3, read-out: HUVEC IC50): 79710 ± 520 nM; form of inhibition of BChE ([2]; Lineweaver–Burk plots): competitive; BChE Ki, fold more inhibitory than donepezil [2]: 5.98 fold; BChE Ki, fold more inhibitory than tacrine [2]: 16.24 fold |
| O=C(CCN1CCN(Cc2ccc(F)cc2)CC1)n1c2ccccc2c2ccccc21 [III] |  |  |  | IC50 (AChE): 5700 nM |
| O=C(c1ccc2nc(-c3ccc[nH]3)oc2c1)N1CCOCC1 [I] |  |  |  | IC50 (AChE): 57.8 nM; IC50 (BChE): 99 nM |
| C=CCN1C(=O)/C(=C/c2cc(CN3CCOCC3)c(O)c(OC)c2)SC1=S [Compound 1, (Z)-3-Allyl-5-[4-hydroxy-3-methoxy-5-(morpholinomethyl)benzylidene]-2-thioxothiazolidin-4-one] | 57.6 ± 11.6 nM | 0.93 | 53.6 ± 8.87 nM | BChE Ki, fold more inhibitory than tacrine [2]: more than 3.16 fold |
| C=CCN1C(=O)/C(=C/c2cc(CN3CCOCC3)c(O)c(OCC)c2)SC1=S [Compound 8, (Z)-3-Allyl-5-[4-hydroxy-3-ethoxy-5-(morpholinomethyl)benzylidene]-2-thioxothiazolidin-4-one] | 85.1 ± 8.45 nM | 1.42 | 121 ± 12.7 nM |  |
| O=C(CN1C(=O)CSC1=S)Nc1ccc([N+](=O)[O-])cc1 [VI] |  |  |  | IC50 (AChE; rhodanine derivatives): 30800 nM; IC50 (BChE; rhodanine derivatives): 7900 nM |
| C=CCN1C(=O)/C(=C/c2cc(CN3CCN(c4ccccc4)CC3)c(O)c(OCC)c2)SC1=S [Compound 10, (Z)-3-Allyl-5-{4-hydroxy-3-ethoxy-5-[(4-phenylpiperazin-1-yl)methyl]benzylidene}-2-thioxothiazolidin-4-one] | 18.6 ± 2.05 nM | 1.16 | 21.6 ± 5.23 nM | IC50 (HUVEC cell line; [3]): 47400 ± 670 nM |
| c1ccc2cc(-c3nc4ccccn4c3CN3CCOCC3)ccc2c1 [II] |  |  |  | IC50 (AChE): 12.6 nM; IC50 (BChE): 25.5 nM |
| C=CCN1C(=O)/C(=C/c2cc(CN3CCOCC3)c(O)c(CN3CCOCC3)c2)SC1=S [Compound 13, (Z)-3-Allyl-5-[4-hydroxy-3,5-bis(morpholinomethyl)benzylidene]-2-thioxothiazolidin-4-one] | 26.5 ± 9.21 nM |  | 112 ± 23.5 nM |  |
| C=CCN1C(=O)/C(=C/c2cc(CN3CCN(C(=O)OCC)CC3)c(O)c(OCC)c2)SC1=S [Compound 9, (Z)-3-Allyl-5-{4-hydroxy-3-ethoxy-5-[(4-ethoxycarbonylpiperazin-1-yl)methyl]benzylidene}-2-thioxothiazolidin-4-one] | 31.5 ± 5.15 nM | 1.29 | 40.5 ± 6.63 nM |  |
| C=CCN1C(=O)/C(=C/c2cc(CN3CCN(c4ncccn4)CC3)c(O)c(OC)c2)SC1=S [Compound 7, (Z)-3-Allyl-5-(4-hydroxy-3-methoxy-5-{[4-(pyrimidin-2-yl)piperazin-1-yl]methyl}benzylidene)-2-thioxothiazolidin-4-one] | 25.4 ± 9.45 nM | 1.14 | 29 ± 7.54 nM | IC50 (HUVEC cell line; [3]): 43300 ± 470 nM; BChE Ki, fold more inhibitory than tacrine [2]: 5.85 fold |
| C=CCN1C(=O)/C(=C/c2cc(CN3CCN(c4ccccc4)CC3)c(O)c(OC)c2)SC1=S [Compound 3, (Z)-3-Allyl-5-{4-hydroxy-3-methoxy-5-[(4-phenylpiperazin-1-yl)methyl]benzylidene}-2-thioxothiazolidin-4-one] | 62 ± 13.6 nM | 1.09 | 67.7 ± 11.4 nM |  |
| CN(C)c1ccc(/C=C2\SC(=S)N(CC(=O)N3CCOCC3)C2=O)cc1 [VII] |  |  |  | IC50 (AChE; rhodanine derivatives): 52300 nM |
| COc1cc(/C=N\NC(=O)c2ccncc2)cc(CN2CCN(c3ccccc3)CC2)c1O [V] |  |  |  | IC50 (AChE): 230 nM |
| C=CCN1C(=O)/C(=C/c2cc(CN3CCN(C(=O)OCC)CC3)c(O)c(OC)c2)SC1=S [Compound 4, (Z)-3-Allyl-5-{4-hydroxy-3-methoxy-5-[(4-ethoxycarbonylpiperazin-1-yl)methyl]benzylidene}-2-thioxothiazolidin-4-one] | 28.7 ± 6.12 nM | 1.15 | 33 ± 9.21 nM | IC50 (HUVEC cell line; [3]): 73130 ± 500 nM |
| C=CCN1C(=O)/C(=C/c2cc(Br)c(O)c(CN3CCOCC3)c2)SC1=S [Compound 12, (Z)-3-Allyl-5-[3-bromo-4-hydroxy-5-(morpholinomethyl)benzylidene]-2-thioxothiazolidin-4-one] | 43 ± 8.77 nM |  | 97.2 ± 17.9 nM |  |
